Test results as given in patent publication EP4635976A1, “CONSTANT UNI-TABS” (Medigene Immunotherapies GmbH, priority 2024, dated 2025).
Marks after values point to notes of the source that are not given here.

Key:
Experiment in all cases: Peptide mismatched library: peptide-loaded T2 cells co-cultured with TCR-transduced CD8+ T cells, IFN-γ-ELISA
Type in all cases: cell-based
[1] = system: NY-ESO-A199_PD1-41 BB TCR (UniTAB1); conditions: CD8^+ T cells transduced with NY-ESO-A199_PD1-41 BB TCR (UniTAB1), mismatch peptide loaded on T2 cells, IFNg-ELISA; for IFN-γ [pg/ml production] MIT038 UniTABs-A199: donor MIT038
From the text: (§1) The aim was to further compare the WT NY-ESO-1 with two UNI-TABS NY-ESO-TCRs (Position A199 in loop 1 and A245 in loop 2) in combination with PD1_41 BB regarding allogeneic HLA cross-recognition and HLA fine typing.
(§2) To test a peptide mismatched library, 336 different mismatched peptides, differing from 1-4 amino acids from the wild-type peptide recognized by the WT TCR were loaded on T2 cells and co-cultured with CD8^+ T cell transduced with either wt NY-ESO_PD1-41 BB TCR, NY-ESO-UniTABS-A199_PD1-41 BB TCR or NY-ESO-UniTABS-A245_PD1-41 BB TCR. The culture supernatant was collected, and an IFN-γ-ELISA performed.
(§3) The sequences and the numbers of the respective mismatch peptides are listed. The cells contain the values of IFN-γ [pg/ml production]. BetaA199: UniTAB epitope set forth in SEQ ID NO: 47 inserted in loop1 at position A199 flanked by GSG linker sequences, BetaA245: UniTAB epitope set forth in SEQ ID NO: 47 inserted in loop 2 at position A245 flanked by GSG linker sequences. Table 2: Mismatched peptides recognized by NY-ESO WT and NY-ESO variants

[2] = system: WT NY-ESO_PD1-41 BB TCR ("SWAT"); conditions: for IFN-γ [pg/ml production] MIT038 SWAT: donor MIT038; for IFN-γ [pg/ml production] MIT038 SWAT / IFN-γ [pg/ml production] MIT 045 SWAT: CD8^+ T cells transduced with WT NY-ESO_PD1-41 BB TCR (SWAT), mismatch peptide loaded on T2 cells, IFNg-ELISA; for IFN-γ [pg/ml production] MIT 045 SWAT: donor MIT045
From the text: as §1, §2, §3

[3] = system: NY-ESO-A245_PD1-41 BB TCR (UniTAB2); conditions: donor MIT045; CD8^+ T cells transduced with NY-ESO-A245_PD1-41 BB TCR (UniTAB2); mismatch peptide loaded on T2 cells; IFNg-ELISA
From the text: as §1, §2, §3

Sequence	IFN-γ [pg/ml production] MIT038 UniTABs-A199 [1]	IFN-γ [pg/ml production] MIT038 SWAT [2]	IFN-γ [pg/ml production] MIT 045 SWAT [2]	recognition of mismatched peptide (IFN-γ response) ([2]; WT TCR-PD1-41BB transduced T cells, two donors)	IFN-γ [pg/ml production] MIT 045 UniTABs-A199 ([1]; donor MIT045)	IFN-γ [pg/ml production] MIT 045 UniTABs-A245 [3]
SLLCYIKHC [compound 239]	312.2** pg/ml	228.6** pg/ml	32.1** pg/ml	–	–	–
ICLQWITQC [compound 8]	–	–	24.7**** pg/ml	only recognized by WT TCR transduced T cells of one donor	–	–
NLLFWICGC [compound 221]	900.2* pg/ml	788.9* pg/ml	100.6* pg/ml	–	889.3* pg/ml	0.0* pg/ml
